Data as given in patent publication US11505547B2, “Compounds” (STEP PHARMA S.A.S., priority 2017, dated 2022).

Columns and labels:
human CTPS1 [1] = molecular target: T1, human CTPS1 (Homo sapiens, UniProt P17812); assay: RapidFire/MS-based enzyme selectivity assay, human CTPS1; type: biochemical; details: RapidFire/MS IC50s, human CTPS1 versus CTPS2
T1 construct: purchased Proteros biostructures GmbH
T1 sequence (P17812 1-591): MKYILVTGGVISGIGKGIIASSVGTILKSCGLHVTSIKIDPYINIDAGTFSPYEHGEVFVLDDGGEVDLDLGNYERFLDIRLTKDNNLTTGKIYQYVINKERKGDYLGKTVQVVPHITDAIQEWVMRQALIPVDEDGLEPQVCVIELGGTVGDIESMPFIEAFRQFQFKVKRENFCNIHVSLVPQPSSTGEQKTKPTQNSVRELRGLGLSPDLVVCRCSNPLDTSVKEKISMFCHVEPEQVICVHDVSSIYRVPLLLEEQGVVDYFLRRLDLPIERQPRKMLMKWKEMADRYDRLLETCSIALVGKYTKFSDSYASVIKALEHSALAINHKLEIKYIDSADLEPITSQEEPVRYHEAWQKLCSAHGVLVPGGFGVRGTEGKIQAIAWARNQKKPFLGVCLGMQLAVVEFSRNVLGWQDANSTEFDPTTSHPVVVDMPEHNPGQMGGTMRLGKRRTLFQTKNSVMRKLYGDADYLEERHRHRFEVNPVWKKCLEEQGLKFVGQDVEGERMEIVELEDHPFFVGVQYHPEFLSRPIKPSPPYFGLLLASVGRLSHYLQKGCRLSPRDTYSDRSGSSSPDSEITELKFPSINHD
Experimental: Biological Example 2—RapidFire/MS-Based Enzyme Selectivity Assays
Human CTPS1 Versus CTPS2 Selectivity Assessment by RapidFire/MS Analysis.
The enzyme inhibitory activities against each target isoform of interest were determined for the compounds of the invention using an optimised RapidFire high-throughput mass spectrometry (RF/MS) assay format. RF/MS assays for both human CTPS1 and CTPS2 were performed in assay buffer consisting of 50 mM HEPES (Merck), 20 mM MgCl2, 5 mM KCl, 1 mM DTT, 0.01% Tween-20, pH to 8.0 accordingly. All reagents were from Sigma-Aldrich unless specified otherwise. Human full-length active C-terminal FLAG-His-tag CTPS1 (UniProtKB-P17812, CTPS[1-591]-[…]) was obtained from Proteros biostructures GmbH. Human full length active C-terminal FLAG-His-Avi tagged CTPS2 (UniProtKB-Q9NRF8, CTPS2 [1-586]-[…]) was obtained from Harker Bio.
Human CTPS (1 or 2) protein was prepared in 1× assay buffer to the final working protein concentration required for the reaction. A 2 uL volume per well of 2×CTPS (1 or 2) protein was mixed with 40 nL of compound using acoustic (ECHO) delivery and incubated for 10 minutes at 25° C. Each isoform enzymatic reaction was subsequently initiated by addition of 2 uL per well of a 2× substrate mix in assay buffer. For hCTPS1: ATP (0.3 mM), UTP (0.2 mM), GTP (0.07 mM) and L-glutamine (0.1 mM). For hCTPS2: ATP (0.1 mM), UTP (0.04 mM), GTP (0.03 mM) and L-glutamine (0.1 mM). Each mixture was incubated for an appropriate amount of time per isoform within the determined linear phase of the reaction at 25° C. A 60 uL volume of stop solution (1% formic acid with 0.5 uM ^13C9-^15N3-CTP in H2O) was added and the plate immediately heat-sealed and centrifuged for 10 minutes at 4,000 rpm. Following centrifugation, plates were loaded onto the Agilent RapidFire microfluidic solid phase extraction system coupled to an API4000 triple quadrupole mass spectrometer (RF/MS) for analysis.
In all cases, the enzyme converts UTP to CTP. […] Readout for data analysis was calculated as the ratio between the peak area of the product CTP and the internal standard ^13C9-^15N3-CTP. […]
(R=ratio/readout, P=product signal area, IS=internal standard signal area) […]
(I=Inhibition, Rneg=median of negative control readout values, Rpos=median of positive control readout values, Rsample=sample readout value)
Percentage inhibition was then plotted against compound concentration, and the 50% inhibitory concentration ([…]) was determined from the resultant concentration-response curve.
Fold selectivity between CTPS1 and CTPS2 was subsequently calculated according to the following equation: […]

human CTPS1 [2] = molecular target: T1, human CTPS1; assay: Human CTPS1 enzyme inhibition, ADP-Glo Max assay; type: biochemical; details: human full length CTPS1, read-out: CTPS1 (Human CTPS1 Enzyme Inhibition data grouped by potency range, IC50)
Method in brief: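 Full-length C-terminal FLAG-His-tagged protein in 50 mM Tris pH 8.0, 10 mM MgCl2, 0.01% Tween-20 and 2 mM L-cysteine, preincubated with compound for 10 min at 25 °C. The substrate mix held ATP 0.31 mM, GTP 0.034 mM, UTP 0.48 mM and L-glutamine 0.186 mM, and the reaction ran within its linear phase. ADP was read by ADP-Glo Max luminescence; IC50 from the % inhibition curve.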

SMILES	Selectivity (fold selectivity between CTPS1 and CTPS2) (human CTPS1 [1])	IC50 (human CTPS1 [2])
CCOc1cncc(-c2ccc(C(=O)NC(CCOC)c3csc(NS(=O)(=O)C4CC4)n3)c(F)c2)n1 (single isomer, unassigned) [Example R93, N-(1-(2-(cyclopropanesulfonamido)thiazol-4-yl)-3-methoxypropyl)-4-(6-ethoxypyrazin-2-yl)-2-fluorobenzamide]	+++ (>60 fold (+++))	–
O=C(NC1(c2csc(NS(=O)(=O)C3CC3)n2)CC1)c1ccc(-c2cncc(C(F)(F)F)n2)cc1 [Example R84, N-(1-(2-(cyclopropanesulfonamido)thiazol-4-yl)cyclopropyl)-4-(6-(trifluoromethyl)pyrazin-2-yl)benzamide]	–	< 100 nM
COCCC(NC(=O)c1ccc(-c2cncc(F)c2)cc1)c1csc(NS(=O)(=O)C2CC2)n1 (stereo not shown) [Example R85, N-(1-(2-(cyclopropanesulfonamido)thiazol-4-yl)-3-methoxypropyl)-4-(5-fluoropyridin-3-yl)benzamide]	–	100 to 1000 nM
CCc1cncc(-c2ccc(C(=O)NC(CCOC)c3csc(NS(=O)(=O)C4CC4)n3)c(F)c2)n1 (stereo not shown) [Example R86, N-(1-(2-(cyclopropanesulfonamido)thiazol-4-yl)-3-methoxypropyl)-4-(6-ethylpyrazin-2-yl)-2-fluorobenzamide]	–	100 to 1000 nM
COCCC(NC(=O)c1ccc(-c2cncc(C(F)(F)F)n2)cc1F)c1csc(NS(=O)(=O)C2CC2)n1 (stereo not shown) [Example R87, N-(1-(2-(cyclopropanesulfonamido)thiazol-4-yl)-3-methoxypropyl)-2-fluoro-4-(6-(trifluoromethyl)pyrazin-2-yl)benzamide]	–	100 to 1000 nM
CCOc1cncc(-c2ccc(C(=O)NC(CCOC)c3csc(NS(=O)(=O)C4CC4)n3)c(F)c2)n1 (stereo not shown) [Example R88, N-(1-(2-(cyclopropanesulfonamido)thiazol-4-yl)-3-methoxypropyl)-4-(6-ethoxypyrazin-2-yl)-2-fluorobenzamide]	–	100 to 1000 nM
COCCC(NC(=O)c1ccc(-c2cncc(OC(C)C)n2)cc1F)c1csc(NS(=O)(=O)C2CC2)n1 (stereo not shown) [Example R89, N-(1-(2-(cyclopropanesulfonamido)thiazol-4-yl)-3-methoxypropyl)-2-fluoro-4-(6-isopropoxypyrazin-2-yl)benzamide]	–	< 100 nM
CCOc1cncc(-c2ccc(C(=O)NC(CCOC)c3csc(NS(=O)(=O)C4CC4)n3)cc2)n1 (stereo not shown) [Example R90, N-(1-(2-(cyclopropanesulfonamido)thiazol-4-yl)-3-methoxypropyl)-4-(6-ethoxypyrazin-2-yl)benzamide]	–	< 100 nM
CCOc1cncc(-c2ccc(C(=O)NC(C)c3csc(NS(=O)(=O)C4CC4)n3)c(F)c2)n1 (stereo not shown) [Example R91, N-(1-(2-(cyclopropanesulfonamido)thiazol-4-yl)ethyl)-4-(6-ethoxypyrazin-2-yl)-2-fluorobenzamide]	–	< 100 nM

The remaining lines, values ahead:

Selectivity (fold selectivity between CTPS1 and CTPS2) (human CTPS1 [1])	IC50 (human CTPS1 [2])	SMILES
+++ (>60 fold (+++))	< 100 nM	CCOc1cncc(-c2ccc(C(=O)NC(CC)c3csc(NS(=O)(=O)C4CC4)n3)c(F)c2)n1 (single isomer, unassigned) [Example R71, N-(1-(2-(cyclopropanesulfonamido)thiazol-4-yl)propyl)-4-(6-ethoxypyrazin-2-yl)-2-fluorobenzamide]
+++ (>60 fold (+++))	< 100 nM	CCOc1cncc(-c2ccc(C(=O)NC(CCOC)c3csc(NS(=O)(=O)C4CC4)n3)c(F)c2)n1 (single isomer, unassigned) [Example R92, N-(1-(2-(cyclopropanesulfonamido)thiazol-4-yl)-3-methoxypropyl)-4-(6-ethoxypyrazin-2-yl)-2-fluorobenzamide]
++ (>30-60 fold (++))	< 100 nM	CCOc1cncc(-c2ccc(C(=O)NC(C)(C)c3csc(NS(=O)(=O)C4CC4)n3)c(F)c2)n1 [Example R6, N-(2-(2-(cyclopropanesulfonamido)thiazol-4-yl)propan-2-yl)-4-(6-ethoxypyrazin-2-yl)-2-fluorobenzamide]
–	< 100 nM	Cc1cc(-c2cncc(C(F)(F)F)n2)ccc1C(=O)NC1(c2csc(NS(=O)(=O)C3CC3)n2)CC1 [Example R83, N-(1-(2-(cyclopropanesulfonamido)thiazol-4-yl)cyclopropyl)-2-methyl-4-(6-(trifluoromethyl)pyrazin-2-yl)benzamide]
